Test results published in patent US8415453B2, “Lung cancer-targeted peptides and applications thereof” (Academia Sinica, priority 2007, dated 2013).
Where no end group is shown, it is not given here. The star is where a group is joined. FITC = O=C1OC2(c3ccc(O)cc3Oc3cc(O)ccc32)c2ccc(NC(=S)*)cc21

Columns and labels:
[1] = tested on: A549 cells; assay: Peptide-binding assay with FITC-labeled peptide, immunofluorescent staining; type: cell-based, human
Protocol: (§1) To investigate whether the synthetic peptide and the selected phage clone competed for the same binding site, a peptide-competitive inhibition assay was performed by immunofluorescent staining. Targeting peptide TDSILRSYDWTY (SP5-2) [SEQ ID NO: 2] and control peptide (RLLDTNRPLLPY) [SEQ ID NO: 22] were synthesized and purified by reverse-phase high-performance liquid chromatography to >95% purity by Invitrogene, Inc. (CA, USA). Conjugation of these peptides with FITC or biotin was performed by adding FITC or biotin to the peptide NH2 terminus by the same company.

[2] = tested on: CL1-5 cells; assay: as above; type: cell-based, human
Protocol: as §1

[3] = tested on: H23 cells; assay: as above; type: cell-based, human
Protocol: as §1

[4] = tested on: H460 cells; assay: as above; type: cell-based, human
Protocol: as §1

[5] = tested on: PC13 cells; assay: as above; type: cell-based, human
Protocol: as §1

[6] = tested on: CL1-5 cells; assay: Peptide-competitive inhibition assay by immunofluorescent staining; type: cell-based, human
Protocol: as §1
Phages were mixed with different concentrations of synthetic peptides and incubated with cells at 4° C. for 1 h. The slides were further incubated with mouse anti-M13 monoclonal antibody (Amersham Biosciences, Uppsala, Sweden), followed by incubation with FITC-labeled goat anti-mouse antibody (Jackson ImmunoResearch). The slides were washed and mounted with mounting medium (Vector, Calif., USA). Then the slides were examined under a Leica Universal microscope. The images were merged by SimplePCI (C-IMAGING, PA, USA) software.

[7] = tested on: CL1-5-derived tumors; assay: In vivo tumor homing, phage titers recovered from tumor and organs; parameters: species or system SCID mice; settings: for effect of co-injected peptide on recovery of PC5-2 from tumor mass: co-injection of 100 μg peptide
Protocol: (§2) To investigate the targeting ability of PC5-2 in vivo, phages were injected into the tail vein of mice bearing CL1-5-derived tumors and recovered after perfusion. SCID mice were injected subcutaneously into the dorsolateral flank with 1×10^7 cancer cells. The mice bearing size-matched lung cancer-derived tumor (tumor sizes about 500 mm3) were injected with targeting phage or control phage through the tail vein. Eight minutes after injection, the mice were treated with diethyl ether to drive them into deep anesthesia. Then the mice were perfused with 50 ml PBS to wash unbound phage. The control organs (brain, heart, and lung) and tumor mass were removed, weighed, and washed three times with cold PBS-PI (protease inhibitor cocktail tablet; Roche, Germany). The organ and tumor samples were homogenized. Then, the phage bound to the tumor mass or control organs were rescued by adding 0.5 ml ER2738 bacterial for 30 minutes at 37° C. The eluted phage particles were titered on agar plates in the presence of 1 mg/L of IPTG/X-Gal. In peptide competitive inhibition experiments, the phages were co-injected with 100 μg of synthetic peptide. We also used the control peptide. The organs and tumor masses were fixed in Bouin's solution for 2 h. After fixation, the samples were embedded in paraffin blocks. The paraffin sections were deparaffinized, rehydrated and subjected to immunostaining using M13 monoclonal antibody, as mentioned above.

[8] = tested on: CL1-5 cells; assay: Flow cytometry of phage-bound cells; type: cell-based, human; settings: peptide competitive inhibition
Protocol: Furthermore, to investigate the target molecule expressed on the cell surface of CL1-5, we measured PC5-2-bound cells using flow cytometry. Lung and other cancer cell lines were cultured overnight and then suspended in PBS containing 50 mM EDTA and blocked with blocking buffer at 4° C. for 30 minutes. The cells were washed 2 times with flow buffer (PBS containing 1% fetal bovine serum). The cells were incubated with phages or FITC-labeled peptide. For the peptide competitive inhibition assay, the phages were mixed with different concentrations of synthetic peptides and the mixture was incubated with the cells. After washing two times with cold flow buffer, the phage-bound cells were incubated with anti-M13 monoclonal antibodies at 4° C. for 1 h and then treated with FITC-conjugated goat anti-mouse IgG antibody. The cells were washed two times with cold flow buffer and then applied to a flow cytometer (Becton Dickinson).

[9] = tested on: NSCLC xenografts; assay: In vivo tissue distribution of phage by immunostaining; parameters: species or system SCID mice; settings: in vivo homing
Protocol: as §2, with “The paraffin sections were deparaffinized, rehydrated and subjected to immunostaining using M13 monoclonal antibody, as mentioned above.” left out

| Substance | binding of FITC-labeled peptide to cells [1] | binding of FITC-labeled peptide to cells [2] | binding of FITC-labeled peptide to cells [3] | binding of FITC-labeled peptide to cells [4] | binding of FITC-labeled peptide to cells [5] | effect of synthetic peptide on binding of PC5-2 phage to CL1-5 cells [6] | effect of co-injected peptide on recovery of PC5-2 from tumor mass [7] | peptide concentration able to inhibit the PC5-2 binding activity completely ([6]; CL1-5) | effect of peptide on phage bound to CL1-5 cells [8] | inhibition of PC5-2 binding to tumor mass ([7]; co-injection of one hundred micrograms of peptide) | effect of peptide on targeting of PC5-2 to NSCLC xenograft [9] |
| --- | --- | --- | --- | --- | --- | --- | --- | --- | --- | --- | --- |
| FITC-labeled control peptide: control peptide RLLDTNRPLLPY with FITC at the NH2 terminus ({FITC}-RLLDTNRPLLPY) | no such binding activity | no such binding activity | no such binding activity | no such binding activity | no such binding activity |  |  |  |  |  |  |
| RLLDTNRPLLPY [control peptide] |  |  |  |  |  | no such effect | no such inhibitory effect |  |  |  |  |
| TDSILRSYDWTY [SP5-2] |  |  |  |  |  | inhibited | markedly inhibited | 27 µg/mL | completely inhibited | 92% | inhibited |
